Test results reported in publication PMC8400200, “Selective Moonlighting Cell-Penetrating Peptides” (Pharmaceutics, 2021).
“Also recorded” adds a separate entry of the source.

Columns and labels:
[1] = test system: yeast or mammalian cells; conditions: cited from earlier work
Source text: Additionally, three other peptides were designed to test the activation strategy (see Table 1). […] For this strategy we chose the peptidase neprilysin (also known as CD10), known to be overexpressed in some types of cancer tissues. The cleavage site sequence recognized by this protease has been well characte ...

[2] = test system: HEK293T, HEK293T-NEP and HeLa cells; experiment: Internalization assay, epifluorescence microscopy, compared or averaged over the three cell lines; format: cell-based; conditions: for internalization compared between peptides: medians of box plots (Figure 6A, 6B); for internalization compared between cell lines: medians of box plots (Figure 6A)
Method: (§1) This procedure was adapted from a previously reported protocol. Cells were incubated with TatNep, TatNepNoCPP or D-TatNepNoCPP peptides at a concentration of 10, 5 and 1 μM (see Table 1). All peptides were dissolved in a 1:4 DMSO-Water solution. Cells were incubated with each peptide for 30 min, then washed with PBS three times and fixed with 4% paraformaldehyde (Merck, Naucalpan de Juárez Edo. de Mexico, Mexico) for 30 min at room temperature. Afterwards, samples were washed with PBS three times and then incubated with 1 μg/mL of DAPI for 2 min at room temperature. For the images, 1000 cells were taken (3 replicates) by using the epifluorescent microscopy (Nikon ECLIPSE Ti-U). Due to a slight precipitation of the peptides, to avoid interference with the quantification, the 10% with the highest fluorescence intensity were considered outliers and were removed for all conditions. A total of 2700 cells remained for further analysis. Internalization analysis was performed by confocal microscopy. Cells were incubated with any of the three peptides at a concentration of 5 μM for 30 min (the fluorescence was strong and the precipitation reduced), then cell membranes were stained with the CellMask^TM Green Plasma Membrane Stain (ThermoFisher, Waltham, MA, USA) following specifications of the provider. Images were acquired with a Zeiss LSM800 microscope using the ZEN 2.6 (blue edition) software. All images were analyzed with the Fiji/ImageJ Software and are available at http://bis.ifc.unam.mx/ironbios/selmoonCPP/ (accessed on 21 July 2021).
For the mammalian cells images obtained from epifluorescence microscopy, a normality Shapiro–Wilk test was done for each individual condition (27 conditions).

[3] = test system: HEK293T, HEK293T-NEP and HeLa cells; experiment: Internalization analysis by confocal microscopy in mammalian cells; format: cell-based; conditions: 5 μM, 30 min, CellMask Green membrane stain
Method: as §1

[4] = test system: HEK293T cells; experiment: Internalization assay, epifluorescence microscopy; format: cell-based; conditions: 10 μM, 30 min, fixed cells, 2700 cells (3 replicates)
Method: as §1, with “Internalization analysis was performed by confocal microscopy.” left out, “Images were acquired with a Zeiss LSM800 microscope using the ZEN 2.6 (blue edition) software.” left out, “2021). […]” for “2021).”

[5] = test system: S. cerevisiae MATa and MATα cells; experiment: Internalization in yeast cells exposed separately, imaging flow cytometry; format: cell-based, Saccharomyces cerevisiae; conditions: for penetrating efficiency in MATa cells compared among the targeted CPPs: MATa exposed separately or mixed with MATα cells
Method: We adapted a previous protocol reported to analyze fluorescent single yeast cells. Briefly, cells were grown overnight and diluted to a final optical density measured at 600 nm of 1.0. A total of 116 μL of this cell dilution was mixed with 4 μL of a solution of penetrating peptide at 200 mM in a 1.5 mL plastic tube. This mixture was analyzed every 5 min for 60 min in a flux cytometer coupled to a multiphotonic microscope (Amnis ImageStream Mark II). In that equipment, 10,000 pictures were taken to record green (excitation 488 nm and emission 509 nm) and red (excitation 561 nm and emission 669 nm) fluorescence and the bright field. These images were then analyzed with the IDEAS software that is part of the Amnis equipment, to identify peptide internalization (red fluorescence). Two types of experiments were conducted; in one set, we exposed MATa and MATα cells separately to peptides α-NLS-C, NLS-α-CE and chimera (see Table 1 for a description of the peptide sequences). In another set of experiments, we exposed MATa and MATα cells mixed together to different penetrating peptides labeled with TAMRA; for this last experiment, the ribosomal protein RPL9A was fused to GFP in MATa cells, to facilitate their distinction from MATα cells. Events recorded in this way were further analyzed to discard cell debris and images that included clumps of cells. Images with a total area of 20–50 μm and an aspect ratio of 0.7 allowed us to identify events that include 1 or 2 cells; furthermore, images with less than 1500 arbitrary units of fluorescence were discarded. The data were plotted using ggplot2 from the R package. Please note that the reported experimental conditions were selected among several trials on the AMNIs equipment to identify the best conditions for these experiments.

[6] = test system: MATa cells; conditions: cited from earlier work
Source text: In the targeted strategy, we noticed differences in penetrating efficiencies among the three targeted CPPs. […] This is observed when MATa are exposed to these peptides separately or mixed with MATα cells. […] However, if NLS-α-CE and chimera peptides would be disrupting the membrane potential of MATa cells as part of their toxic ...

[7] = test system: HEK293T-NEP cells; experiment: Internalization assay, epifluorescence microscopy; format: cell-based; conditions: 10 μM, 30 min, fixed cells, 2700 cells (3 replicates)
Method: HEK293T cells were transfected as previously described with the plasmid PCSC-SP-PW-Nep (Addgene, Watertown, MA, USA), which contains the human neprilysin (MME) gene. This transfection was done with the use of the reagent polyethylenimine (PEI) according to the stable transfection procedures for adherent cells. The transfected HEK293T cells were cultured with DMEM containing 10% FBS and Zeocin 400 µg/mL (ThermoFisher, Waltham, MA, USA) to select stably transfected cells, which were recovered after the third day of transfection. […]
This procedure was adapted from a previously reported protocol. […] Due to a slight precipitation of the peptides, to avoid interference with the quantification, the 10% with the highest fluorescence intensity were considered outliers and were removed for all conditions. […] Cells were incubated with any of the three peptides at a concentration of 5 μM for 30 min (the fluorescence was strong and the precipitation reduced), then cell membranes were stained with the CellMask^TM Green Plasma Membrane Stain (ThermoFisher, Waltham, MA, USA) following specifications of the provider. […] All images were analyzed with the Fiji/ImageJ Software and are available at http://bis.ifc.unam.mx/ironbios/selmoonCPP/ (accessed on 21 July 2021). […]

[8] = test system: S. cerevisiae MATa and MATα cells; experiment: Internalization in yeast cells followed by confocal microscopy; format: cell-based, Saccharomyces cerevisiae; conditions: 50 μM peptide, OD600 0.4, cells in 0.5% agarose, pictures every 3 min for 1 h, two sets of experiments
Method: To confirm that the fluorescence detected using the AMNIS multiphotonic microscope was the fluorescence inside cells, we carried out confocal microscopy experiments (Zeiss LSM510 META) by adapting a previous report. For that end, yeast cells for each yeast haplotype were grown overnight for 14 h in YPD (1% yeast extract (USB Corp., Cleveland, OH, USA), 2% bacto peptone (Becton, Dickinson and Company, Franklin Lakes, NJ, USA) and 2% glucose (Merck, Naucalpan de Juárez Edo. De Mexico, Mexico). Cells were then centrifuged and resuspended in YPD. An OD600 of 0.4 was used for the confocal microscopy experiments, whereas for the cytometry experiments (above) a value of 1.0 was chosen. Yeast cells were immobilized using low melting point agarose (Agarose SFR VWR Life Technologies, Radnor PA, USA) at 0.5%. The peptide concentration used for these experiments was 50 μM. Prior to performing any observations, 3 cycles of sonications (sonicator Bransonic 32) for 3 min each were performed to dissolve potential peptide aggregates. A total of 12.5 μL of yeast inoculum, 1.5 μL of TAMRA-α-NLS-C solution and 1 μL of previously heated agarose were placed on a microscope slide. […] Images were analyzed using Fiji software and the fluorescence intensity recorded for each cell was divided by the area of the corresponding cell.

[9] = epifluorescence, 10, 5 and 1 μM, 30 min

5(6)-carboxytetramethyl rhodamine [TAMRA]
internalization of the free fluorophore [1]: do not internalize

D-(YGRKKRRQRRRFFGFLADDDDEE) [D-TatNepNoCPP, all-D isomer of TatNepNoCPP, negative control, N-terminal TAMRA]
concentration dependence of internalization [2, 9]: does not present a concentration dependent internalization | internalization compared between peptides [2, 9]: less internalized in all cell lines; also recorded: TatNepNoCPP > TatNep > D-TatNepNoCPP | internalization by orthogonal projection [3]: less internalization compared with the other two peptides in all three cell lines | pattern of fluorescence [3]: diffused layer covering the cells

YGRKKRRQRRRFFG [TatNep, peptide produced by digestion of TatNepNoCPP by neprilysin, positive control for internalization, N-terminal TAMRA]
ratio between medians of normalized fluorescence intensity, column peptide against row peptide D-TatNepNoCPP [4]: 2.8 | ratio between medians of normalized fluorescence intensity, column peptide against row peptide TatNepNoCPP [4]: 2.4 | internalization compared between cell lines [2, 9]: internalized in HEK293T and the over-expressing HEK293T-NEP cells with the same efficiency; also recorded: HeLa cells internalized more of this peptide at 10 μM than the other cell lines | internalization compared between peptides [2, 9]: TatNepNoCPP > TatNep > D-TatNepNoCPP | pattern of fluorescence [3]: punctuated fluorescence

KRRWRFVWMNPKKKRKVPPWPYLLWWHWLQLKPGQPMY [Chimera]
penetrating efficiency in MATa cells compared among the targeted CPPs [5]: penetrate less efficiently MATa cells expressing the targeted surface protein (Ste2p) than the α-NLS-C peptide | toxicity to MATa cells [6]: toxic to MATa cells

FRKWRRKPKKKRKVWWRKVKRRWHWLQLKPGQPMY [NLS-α-CE]
penetrating efficiency in MATa cells compared among the targeted CPPs [5]: penetrate less efficiently MATa cells expressing the targeted surface protein (Ste2p) than the α-NLS-C peptide | toxicity to MATa cells [6]: toxic to MATa cells

YGRKKRRQRRRFFGFLADDDDEE [TatNepNoCPP]
ratio between medians of normalized fluorescence intensity, column peptide against row peptide TatNep [7]: 2.4 | internalization, times higher than TatNep ([2]; average of the ratios of medians per cell line, 10 μM): 3 times | internalization compared between cell lines [2, 9]: HeLa > HEK293T > HEK293T-NEP | internalization compared between peptides [2, 9]: best internalization with respect to the other peptides for any cell line; also recorded: TatNepNoCPP > TatNep > D-TatNepNoCPP | pattern of fluorescence [3]: diffused layer covering the cells

RLWHWLQLKPGQPMYWRQPKSKRKVRR [α-NLS-C]
selectivity of internalization (fluorescence intensity inside cells), MATa vs MATα ([5]; living cells exposed separately, OD600 1.0, TAMRA-labelled peptide (4 μL of 200 mM solution in 120 μL), read every 5 min for 60 min, Amnis ImageStream, 10,000 cells per condition, repeated at least 3 times): more selectivity towards MATα cells than NLS-α-CE and chimera peptides | TAMRA fluorescence inside cells, MATa vs MATα [8]: cells expressing the α-pheromone receptor STE2 (MATa cells) internalized more fluorescence than cells that did not express the receptor
